According to patent US20070249732A1, “USE OF CERTAIN PHENYL NAPTHYL COMPOUNDS FOR PROTECTION OF NEURONS AND OLIGODENDROCYTES IN THE TREATMENT OF MULTIPLE SCLEROSIS (MS)” (AVENTIS PHARMACEUTICALS INC., priority 2005, published 2007):
Like-named read-outs stand apart in the source and are kept apart here.

Assays:
[1] = tested on: primary rat oligodendrocyte progenitor cells; test: Oligodendrocyte Toxicity Assay (LDH), progenitor cells; type: cell-based; details: Oligodendrocyte progenitor cell, 1 hour pretreatment, LDH after 24 hours
Experimental: (§1) Primary rat oligodendrocyte progenitor cells were obtained from the cerebra of 2-3 day old postnatal rats (Sprague Dawley). The meninges were removed and tissue was mechanically dissociated. Cells were plated on T75 flasks and fed with DMEM +10% FBS.
(§2) Enriched OLPs were collected by mechanical separation from the astrocytic monolayer and were expanded in serum free media (SFM) supplemented with the mitogens, PDGF-AA (10 ng/mI) and FGF-2 (10 ng/mI).
Cells were plated in 96-well plates, 10,000 per well. Medium was changed to fresh medium and cells were pretreated with compounds for 1 hour. Toxins were added to give the following final concentrations: Sin-110 mM, Camptothecin 1 μM
(§3) After 24 hours, medium was removed and assayed for LDH activity using the Promega cytotox 96 kit (catalog# G1780). Results were calculated as percent protection against toxin-induced toxicity.
(§4) These compounds have been assessed for their efficacy in protection against cell death produced by toxic agents such as SIN-1 (3-morpholino-sydnonimine, producing peroxynitrite) and camptothecin. The target cells assessed in vitro are primary cultures of rodent oligodendrocyte progenitors and their mature counterparts.

ERα = molecular target: T1, ERα (Homo sapiens, UniProt P03372); test: Fluorescence Polarization Competition Assay, ERα binding affinity; details: Fluormone ligand, read-out: Affinity for ER α
T1 construct: purchased Panvera P2698
T1 sequence (P03372 1-595): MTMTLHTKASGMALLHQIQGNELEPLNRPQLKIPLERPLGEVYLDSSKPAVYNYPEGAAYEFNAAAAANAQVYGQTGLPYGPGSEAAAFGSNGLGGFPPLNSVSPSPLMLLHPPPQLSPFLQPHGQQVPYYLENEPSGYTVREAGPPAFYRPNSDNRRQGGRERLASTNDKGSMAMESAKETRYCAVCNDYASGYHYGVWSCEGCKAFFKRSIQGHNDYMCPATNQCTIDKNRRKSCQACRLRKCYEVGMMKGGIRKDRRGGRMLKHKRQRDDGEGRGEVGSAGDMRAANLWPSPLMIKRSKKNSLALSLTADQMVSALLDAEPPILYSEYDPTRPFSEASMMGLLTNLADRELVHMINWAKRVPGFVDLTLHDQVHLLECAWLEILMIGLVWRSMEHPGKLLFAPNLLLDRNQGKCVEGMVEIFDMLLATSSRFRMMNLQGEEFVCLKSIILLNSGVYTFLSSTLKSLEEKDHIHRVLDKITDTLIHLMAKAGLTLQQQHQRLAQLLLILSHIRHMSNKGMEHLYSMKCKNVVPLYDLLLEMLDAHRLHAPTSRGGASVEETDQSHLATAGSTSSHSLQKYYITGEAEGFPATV
Experimental: (§5) A number of compounds were tested for ERα and ERβ binding affinity using Panvera's Fluorescence Polarization Competition Assay Kits (cat. nos. P2698 and P2700). Briefly, ERα or ERβ were thawed on ice from −80° C. An estrogen receptor and fluorescent ligand (Fluormone TM) complex was formed at a 15/1 molar ratio for ERα and at a 10/1 molar ratio for ERβ (2X complex). Serial dilutions of the test compounds were made in assay buffer and the assay was initiated by adding 50 ul of the 2X receptor-ligand complex to 50 ul of compound solution in black 96-well plates. Zero percent competition (theoretical maximum polarization) was measured in wells containing 50 ul of buffer and 50 ul of the 2X receptor-ligand complex. The plates were incubated after gentle shaking in the dark at room temperature. Polarization values (mP) were read no longer than 7 hours after the reaction was started with a FARCyte Fluorescent reader (Amersham) at excitation and emission wavelengths of 485 nm and 535 nm, respectively. Data was analyzed using non-linear regression and IC50 values determined using GraphPad Prism. Estradiol was used as the reference compound.

mature oligodendrocytes = test: Oligodendrocyte Toxicity Assay (LDH), mature oligodendrocytes; type: cell-based; details: Rattus norvegicus; protection against SIN-1-induced toxicity; 1 hour pretreatment, LDH after 24 hours
Experimental: as §1, §2
To generate mature oligodendrocytes, progenitor cells were switched to SFM supplemented with IGF-1 (10ng/ml) 24 hours after plating and cells were grown under these conditions for 7 days prior to experimental assays.
Cells were plated in 96-well plates, 10,000 per well. Medium was changed to fresh medium and cells were pretreated with compounds for 1 hour. […]
as §3, §4

ERβ = molecular target: T2, ERβ (Homo sapiens, UniProt Q92731); test: Fluorescence Polarization Competition Assay, ERβ binding affinity; details: Fluormone ligand, read-out: Affinity for ER β
T2 construct: purchased Panvera P2700
T2 sequence (Q92731 whole entry): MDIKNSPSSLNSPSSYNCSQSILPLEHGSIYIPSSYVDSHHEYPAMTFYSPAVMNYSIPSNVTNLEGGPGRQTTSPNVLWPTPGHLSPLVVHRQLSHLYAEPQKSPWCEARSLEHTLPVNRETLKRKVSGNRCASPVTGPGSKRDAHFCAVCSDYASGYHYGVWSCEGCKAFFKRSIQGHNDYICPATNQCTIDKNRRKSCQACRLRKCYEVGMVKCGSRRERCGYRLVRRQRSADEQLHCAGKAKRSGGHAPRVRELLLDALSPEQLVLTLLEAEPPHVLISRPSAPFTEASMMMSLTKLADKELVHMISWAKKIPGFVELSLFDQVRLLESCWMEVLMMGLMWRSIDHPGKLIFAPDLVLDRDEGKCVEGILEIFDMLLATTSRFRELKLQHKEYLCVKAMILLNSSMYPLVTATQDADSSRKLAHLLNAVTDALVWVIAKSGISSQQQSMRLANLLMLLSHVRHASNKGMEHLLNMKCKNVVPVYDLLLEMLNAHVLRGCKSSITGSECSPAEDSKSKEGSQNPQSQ
Experimental: as §5

Molecule `Oc1ccc(-c2ccc3cc(O)ccc3c2Cl)cc1` [5-chloro-6-(4-hydroxyphenyl)-2-naphthalenol] has an IC50 ([1]; protection against SIN-1-induced toxicity, read-out: Progenitor Oligodendrocytes SIN-1 IC50) of 2170 nM, an IC50 ([1]; protection against camptothecin (1 μM)-induced toxicity, read-out: Progenitor Oligodendrocytes Camptothecin IC50) of less than 3000 nM and an IC50 (ERα) of 35.4 nM. The IC50 (mature oligodendrocytes) was greater than 30000 nM and the IC50 (ERβ) was 3 nM.
